Reference: patent US10226041B2, “Compositions and methods for improving the quality of processed sperm” (Inguran, LLC, priority 2011, dated 2019)

Test system: sex-sorted sperm cells
Test: CASA post-thaw motility of sex sorted bull sperm treated with OSR
Format: cell-based, bovine
Conditions: 3 hr; 1 step-stain (+−−); Bull C (Jersey), Trial 2

vitamin B12
% Motility: 37%
